Data as given in patent US5650442A (priority 1994, dated 1997).

Key:
KHT tumors = test: In vivo radiosensitization of KHT tumors (regrowth delay); design: species or system C3H mice
Protocol: This murine model is one which is routinely used to test hypoxic radiosensitizers. In fact, results obtained with this model were used as a basis for initiating clinical trials of nitroimidazoles as radiation sensitizers in the early to mid-1970's.
C3H mice with hind leg implants of KHT tumors were exposed to radiation. When the tumors had grown to 8 mm in circumference, the mice were treated with DEA/NO alone (control), 15 cGy directed at the tumor, or DEA/NO given 30 minutes before tumor irradiation with 15 cGy (DEA/NO (30 min)). The mice experienced a tumor regrowth delay of one day after treatment of the tumor with 15 cGy.

[1] = test system: Chinese hamster V79 fibroblasts; test: Chemosensitization of V79 cells to bioreductive agents (mitomycin C, SR 4233)
[2] = test system: Chinese hamster V79 lung fibroblasts; test: Radiation survival of aerobic V79 cells, clonogenic assay; type: cell-based
Protocol: (§1) Chinese hamster V79 lung fibroblasts were cultured in F12 medium supplemented with 10% fetal calf serum and antibiotics. […] The assay system was specifically designed to evaluate radiation sensitivity of cells exposed to radiation under both aerobic and hypoxic conditions (Mitchell et al., Radiat. Res., 96, 422-428 (1983); Russo et al., Radiat. Res., 103, 232-239 (1985); and DeGraff et al., Int. J. Radiat. Oncol. Biol. Phys., 16, 1021-1024 (1989)).
When cultured cells were exposed to DEA/NO in subsequent examples, DEA/NO in F12 medium with 10 mM HEPES buffer, pH 7.0, was used. […] Control cells in subsequent examples were exposed to 0.02N NaOH, instead of DEA/NO.
Following irradiation, the various cell suspensions were pipetted, counted, diluted, and plated for macroscopic colony formation. Each dose determination was plated in triplicate and experiments were repeated a minimum of two times. Plates were incubated for seven days, after which colonies were fixed with methanol/acetic acid (3:1), stained with crystal violet, and counted. Colonies containing >50 cells were scored and graphed as FIGS. 1-3. Error bars in the graphs represent the standard deviation of the mean and are shown when larger than the symbol used to designate a data point. Survival curve data were fitted using a linear quadratic model of Albright (Radiat. Res., 112, 331-340 (1987)), and the survival curves shown in the figures represent the best fit curves for the experimental data points. Sensitizer enhancement ratios (SER) were calculated by dividing the radiation dose for control hypoxic conditions by the radiation dose for various agents under hypoxic conditions at the 1% surviving fraction level.

C3H mice = test: Protection of mice from whole body irradiation; type: in vivo
[3] = test system: human MCF7 breast cancer cells; test: Chemosensitization of human breast cancer cells to melphalan or thiotepa, clonogenic assay; conditions: 1 hr, 37° C.; for DEA/NO enhancement ratio at the 10% surviving fraction level: 1 mM DEA/NO
Protocol: FIG. 10 is a graph of surviving fraction versus concentration (μg/ml) of melphalan in the absence or presence of 1 mMDEA/NO or released DEA/NO showing the survival curves for human MCF7 breast cancer cells exposed to melphalan in the absence or presence of 1 mM DEA/NO or released DEA/NO.
FIG. 11 is a graph of surviving fraction versus concentration (μg/ml) of thiotepa in the absence or presence of 1 mM DEA/NO or released DEA/NO showing the survival curves for human MCF7 breast cancer cells exposed to thiotepa in the absence or presence of 1 mM DEA/NO or released DEA/NO.
as §1
Human breast cancer cells in log phase were exposed for 1 hr at 37° C. to varying concentrations of melphalan or thiotepa in the absence or presence of 1 mM DEA/NO or released DEA/NO. […] Cytotoxicity was evaluated using the clonogenic assay of Example 2.
FIGS. 10 and 11 are graphs of surviving fraction versus concentration (μg/ml) of melphalan and thiotepa, respectively.

Female C3H mice = test: Protection of mice against melphalan toxicity; type: in vivo; conditions: 70 mg/kg DEA/NO, i.p.
Protocol: Female C3H mice were injected intraperitoneally with varying doses of melphalan alone or melphalan with 70 mg/kg DEA/NO. The methods employed were adaptations of the methods used in Examples 9 and 11.
FIG. 16 is a graph of % survival of animals versus does of melphalan (mg/kg) showing the chemotherapy survival curves for mice exposed to melphalan in the absence or presence of DEA/NO. […] DEA/NO provided approximately a 1.2 protection factor at the 50% survival level.

[4] = test system: Chinese hamster V79 lung fibroblasts; test: Radiation survival of hypoxic V79 cells (metabolism-mediated oxygen depletion), clonogenic assay, SER; type: cell-based; conditions: 0.05 mM, 1% surviving fraction level

CCN(CC)/[N+]([O-])=N/[O-].[Na+] [DEA/NO]
tumor regrowth delay (KHT tumors; 80 mg/kg 30 min before 15 cGy tumor irradiation): 8 days
survival with no evidence of tumor (KHT tumors; DEA/NO (30 min) group, 15 cGy): Two animals in the DEA/NO (30 min) group survived for at least four weeks with no evidence of tumor
tumors eradicated (KHT tumors; DEA/NO before 15 cGy, n=14): 14%
enhancement of hypoxic cytotoxicity of SR 4233 ([1]; 25 μm SR 4233, 1 mM, hypoxic, 1 hr): enhance the hypoxic cytotoxicity of SR 4233
enhancement of mitomycin C cytotoxicity ([1]; aerobic and hypoxic conditions): enhanced cytotoxicity under both aerobic and hypoxic conditions
enhancement of aerobic radiosensitivity at the 1% survival level ([2]; 2.0 mM): 1.3
effect on aerobic radiosensitivity ([2]; 0.5 and 1.0 mM): had no effect on aerobic radiosensitivity
Percent survival of mice at 30 days (C3H mice; 700 cGy, 80 mg/kg i.p. 10 min before): 100%
Percent survival of mice at 30 days (C3H mice; 700 cGy, 80 mg/kg i.p. 30 min before): 100%
Percent survival of mice at 30 days (C3H mice; 800 cGy, 80 mg/kg i.p. 10 min before): 100%
Percent survival of mice at 30 days (C3H mice; 800 cGy, 80 mg/kg i.p. 30 min before): 90%
Percent survival of mice at 30 days (C3H mice; 900 cGy, 80 mg/kg i.p. 10 min before): 77%
Percent survival of mice at 30 days (C3H mice; 900 cGy, 80 mg/kg i.p. 30 min before): 80%
Percent survival of mice at 30 days (C3H mice; 1000 cGy, 80 mg/kg i.p. 10 min before): 44%
Percent survival of mice at 30 days (C3H mice; 1000 cGy, 80 mg/kg i.p. 30 min before): 10%
enhancement of chemosensitivity / cytotoxicity ([3]; melphalan and thiotepa, 1 mM): significantly enhanced the chemosensitivity of human breast cancer cells to melphalan and thiotepa
DEA/NO enhancement ratio at the 10% surviving fraction level ([3]; melphalan): 3.3
DEA/NO enhancement ratio at the 10% surviving fraction level ([3]; thiotepa): 1.3
protection against the effects of melphalan (Female C3H mice): protected the mice against the effects of melphalan
protection factor at the 50% survival level (Female C3H mice; varying melphalan doses): ~1.2
SER [4]: 1.0
